Test results reported in patent publication US20070259844A1, “Antiviral Compositions And Methods Of Using The Same” (VGX PHARMACEUTICALS, priority 2003, published 2007).

Assays:
[1] = test system: HCV RNA-replicating cell line AVA5; assay: Primary in vitro anti-HCV screen, intracellular HCV RNA levels in AVA5 cells; format: cell-based
Protocol: (§1) The antiviral activity of test compounds are assayed in the stably HCV RNA-replicating cell line, AVA5, derived by transfection of the human hepatoblastoma cell line, Huh7 (Blight, et al., 2000, Sci. 290:1972). Compounds are added to dividing cultures once daily for three days (media is changed with each addition of compound). Cultures generally start the assay at 50% confluence and reach confluence during the last day of treatment. Intracellular HCV RNA levels and cytotoxicity are assessed 24 hours after the last dose of compound.
(§2) Assays are conducted using a single dose of test compound. Replicate cultures for HCV RNA levels (on 48-well plates) and triplicate cultures for cytoxicity (on 96-well plates) are used.
Intracellular HCV RNA levels are measured using standard blot hybridization (Korba & Gerin, 1992, Antivir. Res. 19:55) using triplicate cultures. HCV RNA levels in the treated cultures are expressed as a percentage of the mean levels of RNA detected in untreated cultures. Levels of β-actin RNA are used to normalize HCV RNA levels in each sample.

[2] = test system: AVA5 cells (derived from human hepatoblastoma cell line Huh7); assay: Cytotoxicity in the anti-HCV screen (AVA5 cultures); format: cell-based; details: 10 IU/ml
Protocol: as §1, §2

[3] = biological target: T1, human glucocorticoid receptor (Homo sapiens, UniProt P04150); details: cited from earlier work
T1 sequence (P04150 1-777): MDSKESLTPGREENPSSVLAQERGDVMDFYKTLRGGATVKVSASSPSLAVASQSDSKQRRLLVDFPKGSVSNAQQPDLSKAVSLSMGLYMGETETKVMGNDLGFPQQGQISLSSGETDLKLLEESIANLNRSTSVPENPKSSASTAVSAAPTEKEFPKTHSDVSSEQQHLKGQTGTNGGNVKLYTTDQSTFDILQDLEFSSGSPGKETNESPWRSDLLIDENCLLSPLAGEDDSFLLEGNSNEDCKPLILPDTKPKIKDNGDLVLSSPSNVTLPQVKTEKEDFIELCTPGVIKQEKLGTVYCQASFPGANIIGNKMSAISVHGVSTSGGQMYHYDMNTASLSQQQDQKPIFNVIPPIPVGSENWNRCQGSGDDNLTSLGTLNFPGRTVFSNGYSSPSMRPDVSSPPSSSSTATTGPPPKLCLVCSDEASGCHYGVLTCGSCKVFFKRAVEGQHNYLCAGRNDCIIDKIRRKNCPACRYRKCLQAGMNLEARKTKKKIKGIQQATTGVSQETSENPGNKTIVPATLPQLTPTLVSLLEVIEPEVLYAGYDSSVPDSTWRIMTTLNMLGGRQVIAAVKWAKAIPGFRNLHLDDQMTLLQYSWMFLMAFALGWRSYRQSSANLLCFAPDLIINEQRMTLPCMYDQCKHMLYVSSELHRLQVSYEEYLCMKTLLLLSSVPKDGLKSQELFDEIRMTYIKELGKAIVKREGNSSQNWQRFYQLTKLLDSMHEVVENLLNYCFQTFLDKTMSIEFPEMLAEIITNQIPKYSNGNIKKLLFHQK

[4] = Cytotoxicity in the anti-HCV screen (AVA5 cultures); format: cell-based, human; details: human, AVA5 cells (stably HCV RNA-replicating, derived from Huh7); toxicity control, AVA5 cells, once daily for three days; read-out: approximate CC90
Protocol: as §1, §2

α-interferon
approximate EC90 ([1]; positive antiviral control, AVA5 cells, once daily for three days): ~10 IU/ml | cytotoxicity at the EC90 [2]: no cytotoxicity

C[C@]12CCC(=O)C=C1CC[C@@H]1[C@@H]2[C@@H](O)C[C@@]2(C)[C@H]1CC[C@]2(O)C(=O)CO [cortisol, reference compound]
relative binding affinity to the human glucocorticoid receptor [3]: 23%

NC(=O)c1ncn([C@@H]2O[C@H](CO)[C@@H](O)[C@H]2O)n1 [ribavirin, reference compound]
antiviral activity at the CC90 ([1]; 100 μM): no antiviral activity | CC90 at 3 days [4]: ~100 µM
